Measurements: PubChem BioAssay (NCI)
Where “and” joins values, the source holds several entries; their conditions need not be identical. Equal entries are not always repeated.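 In this assay, cells in 96-well plates receive the compound at five concentrations for 48 hours. Endpoints are linearly interpolated between the surrounding concentrations. GI50 marks 50% less growth. TGI marks complete inhibition of growth.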

Assays:
Assay in all cases: NCI tumour cell line growth inhibition, 48 h
UACC-257 melanoma = system: UACC-257 melanoma
A498 renal = system: A498 renal
HCC-2998 colon = system: HCC-2998 colon
BT-549 breast = system: BT-549 breast
786-0 renal = system: 786-0 renal
MDA-MB-231 breast = system: MDA-MB-231 breast
SK-OV-3 ovarian = system: SK-OV-3 ovarian
OVCAR-4 ovarian = system: OVCAR-4 ovarian
IGROV1 ovarian = system: IGROV1 ovarian
NCI/ADR-RES ovarian = system: NCI/ADR-RES ovarian

| Structure (SMILES) | GI50 (UACC-257 melanoma) | TGI (UACC-257 melanoma) | GI50 (A498 renal) | TGI (A498 renal) | GI50 (HCC-2998 colon) | TGI (HCC-2998 colon) | GI50 (BT-549 breast) | TGI (BT-549 breast) | GI50 (786-0 renal) | TGI (786-0 renal) | GI50 (MDA-MB-231 breast) | TGI (MDA-MB-231 breast) | GI50 (SK-OV-3 ovarian) | TGI (SK-OV-3 ovarian) | GI50 (OVCAR-4 ovarian) | TGI (OVCAR-4 ovarian) | GI50 (IGROV1 ovarian) | TGI (IGROV1 ovarian) | GI50 (NCI/ADR-RES ovarian) | TGI (NCI/ADR-RES ovarian) |
| --- | --- | --- | --- | --- | --- | --- | --- | --- | --- | --- | --- | --- | --- | --- | --- | --- | --- | --- | --- | --- |
| O=C(/C=C/c1ccco1)Nc1ncc(Cc2cccc(C(F)(F)F)c2)s1 | 3.63 µM | > 100 µM | 0.0267 µM | 1.73 µM | 0.179 µM | 2.21 µM | 0.248 µM | > 21.2 µM | 0.163 µM | 17.8 µM | 0.153 µM | 4.8 µM | 0.0626 µM | 7.45 µM | 0.495 µM | 4.03 µM | 0.124 µM | > 32.2 µM | 0.0422 µM | 1.66 µM |
| CN(C)c1ccc(/C=C(\C#N)c2ccccc2)cc1 | 44.7 µM and 57.4 µM | > 100 µM | 0.633 µM and 0.281 µM and 0.316 µM | – | 1.31 µM and 3.24 µM and 1.62 µM | 31.7 µM and 57.4 µM and > 100 µM | 0.121 µM and 0.794 µM and 0.621 µM | – | 0.56 µM and 0.763 µM and 0.437 µM | > 100 µM and 58.6 µM and 30.2 µM | 1.66 µM and 1.97 µM | 78.4 µM and 76.7 µM | 0.421 µM and 0.622 µM and 0.641 µM | > 100 µM | 3.18 µM and 2.42 µM and 1.75 µM | > 100 µM | 0.599 µM and 1.81 µM | > 100 µM | 0.348 µM and 0.395 µM and 0.324 µM | 49.9 µM and > 100 µM and 74.1 µM |
| O=C(O)c1ccc(NCc2nc3ccccc3[nH]2)cc1 | > 100 µM | > 100 µM | – | > 100 µM | > 100 µM | > 100 µM | > 100 µM | > 100 µM | > 100 µM | > 100 µM | > 100 µM | > 100 µM | > 100 µM | > 100 µM | > 100 µM | > 100 µM | > 100 µM | > 100 µM | > 100 µM | > 100 µM |
| CC(C)n1nc(C#Cc2cccc(O)c2)c2c(N)ncnc21 | 1.22 µM and 1.63 µM | 6.17 µM and 4.95 µM | 1.56 µM and 1.71 µM | 6.5 µM and 4.29 µM | 2.4 µM and 4.46 µM | 27.4 µM and 21.5 µM | 1.33 µM and 1.34 µM | 4.56 µM and 6.18 µM | 4.7 µM and 3.37 µM | 15.3 µM and 11.7 µM | 0.508 µM and 0.0966 µM | 2.07 µM and 2.15 µM | 0.978 µM and 1.01 µM | 3.67 µM | 1.34 µM and 1.74 µM | 7.4 µM and 6.17 µM | 0.856 µM | 2.24 µM | 2.38 µM and 1.87 µM | 24.7 µM and 7.09 µM |
| Cc1cc(I)cc(CNCCN2CCOCC2)c1O | > 100 µM | > 100 µM | > 100 µM | > 100 µM | 43.9 µM | > 100 µM | 15.4 µM | 61.3 µM | 36.9 µM | > 100 µM | > 100 µM | > 100 µM | > 100 µM | > 100 µM | > 100 µM | > 100 µM | 67 µM | > 100 µM | 12.5 µM | > 100 µM |
| COc1ccc(C2CC(c3ccccc3)=NN2C(=O)c2cc(OC)c(OC)c(OC)c2)cc1O (centres undefined) | 22.1 µM | > 54.3 µM | 0.618 µM | 19.4 µM | 0.724 µM | 4.08 µM | 2 µM | 21.4 µM | 0.301 µM | 3.86 µM | 0.902 µM | 18.1 µM | 0.414 µM | 16.6 µM | 0.596 µM | > 100 µM | 0.498 µM | > 100 µM | 0.552 µM | – |
| CC(=O)OC1CC2C(C)(C)CCC[C@]2(C)C2=C1C(O)=C(C(C)C)C(=O)C2=O (some centres undefined) | 0.932 µM | 3 µM | 0.402 µM | 1.79 µM | 0.228 µM | 0.546 µM | 1.16 µM | 3.34 µM | 0.813 µM | 2.91 µM | 0.477 µM | 3.74 µM | 2.59 µM | > 28.4 µM | 0.8 µM | 7.07 µM | 1.53 µM | 5.52 µM | 0.817 µM | 5.13 µM |
| Cc1cc(O[C@@H]2O[C@@H](C)[C@H](O)[C@@H](O)[C@H]2O)c2c3c(c(O[C@@H]4O[C@@H](C)[C@H](O)[C@@H](O)[C@H]4O)cc2c1)C(=O)c1c(O)cccc1C3=O | > 30 µM | > 30 µM | > 30 µM | > 30 µM | > 30 µM | > 30 µM | > 30 µM | > 30 µM | > 30 µM | > 30 µM | > 30 µM | > 30 µM | > 30 µM | > 30 µM | > 30 µM | > 30 µM | > 30 µM | > 30 µM | > 30 µM | > 30 µM |
| COc1ccc(N=N/C(=N\NC(=O)c2cc(Br)ccc2O)c2ccc(N(CCC#N)CCC#N)cc2OC)cc1 | > 150 µg/mL | > 150 µg/mL | > 150 µg/mL | > 150 µg/mL | 28.7 µg/mL | 66.5 µg/mL | > 150 µg/mL | > 150 µg/mL | 64.6 µg/mL | > 150 µg/mL | 70.8 µg/mL | > 150 µg/mL | 80.6 µg/mL | > 150 µg/mL | 28.5 µg/mL | 76 µg/mL | 39.6 µg/mL | > 150 µg/mL | 42 µg/mL | > 150 µg/mL |
| CCC(CC)c1cc(N[C@H]2CC[C@H](N)C2)n2nccc2n1 | 1.84 µM | 5.87 µM | 2.53 µM | > 100 µM | 1.52 µM | 12 µM | 1.36 µM | 3.22 µM | 2.22 µM | > 100 µM | 1.05 µM | > 100 µM | 3.44 µM | > 100 µM | 0.978 µM | 22.8 µM | 2.38 µM | > 100 µM | 6.41 µM | > 100 µM |
| CCC1=C[C@@H]2CN(C1)Cc1c([nH]c3ccccc13)[C@@](C(=O)OC)(c1cc3c(cc1OC)N(C)[C@H]1[C@@](O)(C(=O)OC)[C@H](OC(C)=O)[C@]4(CC)C=CCN5CC[C@]31[C@@H]54)C2 | – | – | < 0.01 µM | 0.141 µM | < 0.011 µM | 1.86 µM | < 0.0107 µM | 8.82 µM | < 0.0205 µM | 13 µM | < 0.018 µM | 8.04 µM | < 0.01 µM | 2.02 µM | < 0.01 µM | 21 µM | < 0.0136 µM | 0.463 µM | 1.58 µM | 30.5 µM |
| NS(=O)(=O)c1ccc(N=Nc2c(O)[nH]c3ccc(C(=O)NCCc4cnc[nH]4)cc23)cc1 | > 25 µM | > 25 µM | > 25 µM | > 25 µM | > 25 µM | > 25 µM | > 25 µM | > 25 µM | > 25 µM | > 25 µM | > 25 µM | > 25 µM | > 25 µM | > 25 µM | > 25 µM | > 25 µM | > 25 µM | > 25 µM | > 25 µM | > 25 µM |
